{"source": "patent US8106052B2", "about": "“Luminescence-based methods and probes for measuring cytochrome P450 activity” (Promega Corporation, priority 2002, dated 2012)", "key": {"[1]": {"system": "pooled human liver microsomes", "experiment": "Pooled human liver microsomes in two-step luminescent CYP450 reaction", "conditions": "for Effect on activity against Luc BE: substrate Luc BE, ketoconazole 100 micromolar; for CYP450 activity detected with the substrate compared to Sf9 cell membranes: pooled human liver microsomes, 60 minutes at 37° C.", "description": "FIG. 8. Pooled human liver microsomes in two-step luminescent CYP450 reactions. D-luciferin derivatives were incubated in a CYP450 reaction mix with pooled human liver microsomes for 60 minutes at 37° C. before combining with a luciferase reaction mixture. For controls liver microsomes were replaced with control (no CYP450) Sf9 cell membranes. Luminescence was read within 12 minutes of combining the reactions on a Berthold Orion luminometer. […] Values labeled “nt” are vehicle controls.\n(§1) In this Example, a procedure for a two-step CYP450/luciferase assay is provided. Luciferin derivatives were evaluated as P450 substrates and luciferase pro-substrates using this procedure. 20 microliter CYP450 reactions were prepared at pH 7.4 in an amount of KPO4 buffer that is optimal for a given CYP450 isoform (100 mM for CYP1A1, CYP1A2, CYP2B6, CYP2D6 and CYP2E1; 50 mM for CYP2C8 and CYP2C19; 25 mM for 2C9 and for pooled human liver microsomes; 200 mM for CYP3A4). For CYP2A6 100 mM Tris at pH 7.5 was substituted for KPO4. […] Reactions were initiated by addition of 0.4 pmoles recombinant human CYP450 co-expressed with CYP450 reductase in Sf9 cell microsomal membranes or 4 microgram pooled human liver microsomes and incubation at 37° C. After an initial incubation period at 37° C. 20 microliter CYP450 reactions were mixed with an 80 microliter luciferase reaction mix. […] Assays were also performed using 50 microliter CYP450 and luciferase reaction volumes (e.g., FIG. 3, panel B, table 3). Light output was measured immediately in a Turner Reporter, Turner 20/20 or Berthold Orion luminometer. Because the calibration of instruments from different manufacturers varies the quantitation of light output is instrument-specific and direct comparisons between instruments cannot be made."}, "[2]": {"biological_target": "T1, CYP1A2 (Homo sapiens, UniProt P05177)", "T1 sequence (P05177 1-516)": "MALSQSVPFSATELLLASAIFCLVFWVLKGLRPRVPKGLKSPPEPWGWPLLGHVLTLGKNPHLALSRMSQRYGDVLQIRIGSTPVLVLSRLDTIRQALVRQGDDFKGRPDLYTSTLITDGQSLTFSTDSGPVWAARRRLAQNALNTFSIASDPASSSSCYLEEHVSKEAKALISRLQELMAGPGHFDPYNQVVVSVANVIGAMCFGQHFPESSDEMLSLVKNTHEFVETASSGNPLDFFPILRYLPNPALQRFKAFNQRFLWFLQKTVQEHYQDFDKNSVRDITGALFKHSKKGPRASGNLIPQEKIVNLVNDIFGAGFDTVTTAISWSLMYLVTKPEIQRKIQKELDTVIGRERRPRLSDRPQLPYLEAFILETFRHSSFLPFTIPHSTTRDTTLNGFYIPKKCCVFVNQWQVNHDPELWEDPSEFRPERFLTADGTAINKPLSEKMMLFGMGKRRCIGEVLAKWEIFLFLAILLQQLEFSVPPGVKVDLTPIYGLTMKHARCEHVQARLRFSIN", "experiment": "Two-step CYP450/luciferase reaction, luciferin derivative evaluation as substrate", "conditions": "CYP450 incubation 60 minutes at 37° C., then luciferase", "description": "as §1\n(§2) O-dealkylation and hydroxylation are common CYP450 catalyzed xenobiotic transformations (9). […] The CYP450 activities tested are contained in microsome fractions from insect cells that over-express a single recombinant human CYP450 isoform in combination with NADPH CYP450 reductase. It was reasoned that if CYP450s dealkylated or hydroxylated the luciferin derivatives at the 6′ position, authentic luciferin would be generated that could be detected enzymatically in a light generating firefly luciferase reaction as described by the equation in FIG. 1.\n(§3) The panel included CYP1A1, CYP1A2, CYP2A6, CYP2B6, CYP2C8, CYP2C9, CYP2C19, CYP2D6, CYP2E1 and CYP3A4. After an initial incubation with CYP450, luciferase and its requisite cofactors were added and light output was monitored (FIGS. 3 and 9)."}, "[3]": {"biological_target": "T2, CYP2C9 (Homo sapiens, UniProt P11712)", "experiment": "Two-step CYP450/luciferase reaction, luciferin derivative evaluation as substrate", "conditions": "for Light output over controls with CYP2C9: CYP450 incubation 60 minutes at 37° C., then luciferase", "description": "as §1, §2, §3"}, "[4]": {"biological_target": "T2, CYP2C9", "experiment": "CYP450-catalyzed conversion of luciferin derivatives to luciferin (HPLC)", "type": "biochemical", "conditions": "100 micromolar, 37 C, HPLC with fluorescence detection"}, "[5]": {"biological_target": "T2, CYP2C9", "experiment": "One-step CYP450/luciferase reaction", "type": "biochemical", "set-up": "purchased GenTest (Woburn, Mass.); host or cells: Sf9 insect cells", "conditions": "37° C.", "description": "(§4) Luciferin derivatives were evaluated as P450 substrates and luciferase pro-substrates using this procedure."}, "[6]": {"biological_target": "T3, CYP2C8 (Homo sapiens, UniProt P10632)", "T3 sequence (P10632 1-490)": "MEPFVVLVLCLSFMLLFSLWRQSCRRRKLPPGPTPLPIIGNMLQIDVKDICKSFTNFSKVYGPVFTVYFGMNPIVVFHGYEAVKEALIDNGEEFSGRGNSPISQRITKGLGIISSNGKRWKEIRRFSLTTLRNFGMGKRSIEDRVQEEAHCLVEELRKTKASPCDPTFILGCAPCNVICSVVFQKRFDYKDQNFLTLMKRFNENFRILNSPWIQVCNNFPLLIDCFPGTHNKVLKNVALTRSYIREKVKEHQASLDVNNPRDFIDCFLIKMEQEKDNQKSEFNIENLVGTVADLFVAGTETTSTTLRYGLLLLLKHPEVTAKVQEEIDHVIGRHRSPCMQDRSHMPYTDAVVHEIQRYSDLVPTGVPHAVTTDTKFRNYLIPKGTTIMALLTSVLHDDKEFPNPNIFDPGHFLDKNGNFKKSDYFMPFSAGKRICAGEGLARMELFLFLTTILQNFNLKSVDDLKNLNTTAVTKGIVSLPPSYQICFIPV", "conditions": "CYP450 incubation 60 minutes at 37° C., then luciferase", "description": "as §1, §2, §3"}, "[7]": {"biological_target": "T4, CYP3A4 (Homo sapiens, UniProt P08684)", "T4 sequence (P08684 whole entry)": "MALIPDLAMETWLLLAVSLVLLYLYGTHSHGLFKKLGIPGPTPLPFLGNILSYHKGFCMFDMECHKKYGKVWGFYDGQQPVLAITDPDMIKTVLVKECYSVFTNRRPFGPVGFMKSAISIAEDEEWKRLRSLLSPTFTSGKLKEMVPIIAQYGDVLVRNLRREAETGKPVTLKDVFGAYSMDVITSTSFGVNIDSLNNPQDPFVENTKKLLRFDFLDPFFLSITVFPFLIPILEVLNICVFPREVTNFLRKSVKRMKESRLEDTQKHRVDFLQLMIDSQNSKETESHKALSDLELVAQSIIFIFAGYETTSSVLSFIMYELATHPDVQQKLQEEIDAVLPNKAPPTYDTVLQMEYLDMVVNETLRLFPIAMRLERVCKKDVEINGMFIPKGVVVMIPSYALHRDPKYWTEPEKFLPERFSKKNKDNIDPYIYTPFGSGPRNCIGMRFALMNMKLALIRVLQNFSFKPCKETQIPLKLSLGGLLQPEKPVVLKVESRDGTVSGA", "description": "as §1, §2, §3"}, "[8]": {"biological_target": "T4, CYP3A4", "experiment": "One-step CYP450/luciferase reaction", "conditions": "37° C.", "description": "as §4"}, "[9]": {"biological_target": "T5, CYP1A1 (Homo sapiens, UniProt P04798)", "T5 sequence (P04798 1-512)": "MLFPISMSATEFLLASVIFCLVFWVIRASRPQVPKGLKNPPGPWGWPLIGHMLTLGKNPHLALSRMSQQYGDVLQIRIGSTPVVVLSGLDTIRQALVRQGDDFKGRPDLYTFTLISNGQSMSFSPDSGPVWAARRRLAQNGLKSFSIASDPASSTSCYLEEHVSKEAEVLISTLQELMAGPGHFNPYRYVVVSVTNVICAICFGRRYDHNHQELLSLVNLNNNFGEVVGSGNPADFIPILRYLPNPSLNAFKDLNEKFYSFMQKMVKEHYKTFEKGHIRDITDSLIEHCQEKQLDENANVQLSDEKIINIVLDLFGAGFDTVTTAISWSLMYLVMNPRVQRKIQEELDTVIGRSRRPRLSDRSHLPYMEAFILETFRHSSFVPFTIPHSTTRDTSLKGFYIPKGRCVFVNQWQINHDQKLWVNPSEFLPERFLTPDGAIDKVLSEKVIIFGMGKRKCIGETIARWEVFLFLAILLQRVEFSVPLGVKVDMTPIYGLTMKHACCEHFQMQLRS", "conditions": "CYP450 incubation 60 minutes at 37° C., then luciferase", "description": "as §1, §2, §3"}, "[10]": {"biological_target": "T5, CYP1A1", "experiment": "CYP450-catalyzed conversion of luciferin derivatives to luciferin (HPLC)", "conditions": "100 micromolar, 37 C, HPLC with fluorescence detection", "description": "At various time intervals, the reactions were stopped by the addition of Tergitol to 0.1% (v/v) and flash freezing in liquid nitrogen. 95 microliter aliquots of each reaction mixture were subjected to fractionation by HPLC. […] Separation was achieved on a 5 micron Adsorbosphere HS C18 column (Alltech Associates) with a solvent gradient of 0.05M KH2PO4/pH 6 (solvent A) and 80:20 acetonitrile/water (solvent B). The gradient conditions used were 15% B to 95% B over 10 min."}, "[11]": {"conditions": "alpha-naphthoflavone 10 micromolar"}, "[12]": {"conditions": "two-step, 37° C., up to 60 minutes"}}, "note": "Where two headings read alike, the source gives them in different places."}
{"smiles": "O=c1cc(-c2ccccc2)oc2c1ccc1ccccc12", "note": "[Alpha-Naphpthoflavone, alpha-naphthoflavone]", "values": [{"measurement": "Effect on activity against Luc BE", "setting": "[1]; [11]", "result": "slight stimulation"}, {"measurement": "Inhibition of microsomal light output", "setting": "[1]; substrates H-Luc, Luc ME, Luc EE, Luc BE, alpha-naphthoflavone 10 micromolar", "result": "lack of inhibition"}]}
{"smiles": "O=C(O)C1CSC(c2nc3ccccc3s2)=N1", "note": "(stereo not drawn) [H-Luc, 6′-Deoxyluciferin]", "values": [{"measurement": "Light output over controls with CYP1A2", "setting": "[2]", "result": "increased light output over controls"}, {"measurement": "Light output over controls with CYP2C9", "setting": "[3]", "result": "increased light output over controls"}, {"measurement": "Time-dependence of light output on CYP2C9/substrate incubation", "setting": "[3]; [12]", "result": "increased in a linear fashion for up to 60 minutes"}, {"measurement": "Conversion to luciferin by CYP2C9", "setting": "[4]", "result": "confirmed"}, {"measurement": "CYP450 activity detected with the substrate compared to Sf9 cell membranes", "setting": "[1]", "result": "significant amounts of CYP450 activity was detected"}, {"measurement": "Light output over time, one-step with CYP2C9", "setting": "[5]", "result": "increasing to a maximum by about 30 minutes and declining thereafter"}]}
{"smiles": "CC(=O)N1CCN(c2ccc(OCC3COC(Cn4ccnc4)(c4ccc(Cl)cc4Cl)O3)cc2)CC1", "note": "(stereo not drawn) [Ketoconazole, ketoconazole]", "values": [{"measurement": "Inhibition of light output with H-Luc", "setting": "[1]; substrate H-Luc, sulfaphenazole and ketoconazole 100 micromolar", "result": "Partial inhibition"}, {"measurement": "Effect on activity against Luc BE", "setting": "[1]; [11]", "result": "Inhibition"}]}
{"smiles": "O=C(O)[C@H]1CSC(c2nc3ccc(OCc4ccccc4)cc3s2)=N1", "note": "[Luc BE, Luciferin 6′-benzyl ether]", "values": [{"measurement": "Light output over controls with CYP2C9", "setting": "[3]", "result": "increased significantly"}, {"measurement": "Light output over controls with CYP2C8", "setting": "[6]", "result": "increased significantly"}, {"measurement": "Light output over controls with CYP3A4", "setting": "[7]; CYP450 incubation 60 minutes at 37° C., then luciferase", "result": "increased significantly"}, {"measurement": "Time-dependence of light output on CYP3A4/substrate incubation", "setting": "[7]; [12]", "result": "increased in a linear fashion for up to 60 minutes"}, {"measurement": "Difference in light output to -CYP450 control, one-step with CYP3A4", "setting": "[8]", "result": "modest"}, {"measurement": "CYP450 activity detected with the substrate compared to Sf9 cell membranes", "setting": "[1]", "result": "significant amounts of CYP450 activity was detected"}]}
{"smiles": "O=C(O)[C@H]1CSC(c2nc3ccc(OCCCl)cc3s2)=N1", "note": "[Luc CEE, Luciferin 6′-(2-chloroethyl)ether]", "values": [{"measurement": "Light output over controls with CYP1A2", "setting": "[2]", "result": "increased significantly"}, {"measurement": "Light output over controls with CYP2C9", "setting": "[3]", "result": "increased significantly"}, {"measurement": "Light output over controls with CYP1A1", "setting": "[9]", "result": "increased significantly"}, {"measurement": "Light output over controls with CYP2C8", "setting": "[6]", "result": "increased significantly"}, {"measurement": "Conversion to luciferin by CYP1A1", "setting": "[10]", "result": "confirmed"}]}
{"smiles": "CCOc1ccc2nc(C3=N[C@@H](C(=O)O)CS3)sc2c1", "note": "[Luc EE, luciferin 6′ ethyl ether]", "values": [{"measurement": "Light output over controls with CYP1A2", "setting": "[2]", "result": "increased significantly"}, {"measurement": "Light output over controls with CYP2C9", "setting": "[3]", "result": "increased significantly"}, {"measurement": "Light output over controls with CYP1A1", "setting": "[9]", "result": "increased significantly"}, {"measurement": "Light output over controls with CYP2C8", "setting": "[6]", "result": "increased significantly"}, {"measurement": "CYP450 activity detected with the substrate compared to Sf9 cell membranes", "setting": "[1]", "result": "significant amounts of CYP450 activity was detected"}]}
{"smiles": "Nc1ccc(S(=O)(=O)Nc2ccnn2-c2ccccc2)cc1", "note": "[Sulfaphenazole, sulfaphenazole]", "values": [{"measurement": "Inhibition of light output with H-Luc", "setting": "[1]", "result": "near complete inhibition"}]}
